Measured values: the supplement of paper PMC10307832

Columns and labels:
Assay in all cases: relative viability (nuclei count vs DMSO), 5 days (fraction); higher = more cells survive
BI-D1870 + Alpelisib = compound: CC(C)CCN1c2nc(Nc3cc(F)c(O)c(F)c3)ncc2N(C)C(=O)C1C [BI-D1870] + Cc1nc(NC(=O)N2CCC[C@H]2C(N)=O)sc1-c1ccnc(C(C)(C)C(F)(F)F)c1 [Alpelisib] (partner 2 µM)
Outline: (§1)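 Relative viability is defined as nuclei in treated wells over nuclei in vehicle wells. Duplicate plates were run and medians reported. Lung cancer cell lines in 1536-well plates were dosed by pin tool one day after seeding, with one drug or with a fixed anchor-drug dose plus five library-drug doses (not always all listed) in √10 steps, and nuclei were counted after 5 days.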

Zebularine + Palbociclib = compound: O=c1ncccn1[C@@H]1O[C@H](CO)[C@@H](O)[C@H]1O [Zebularine] + CC(=O)c1c(C)c2cnc(Nc3ccc(N4CCNCC4)cn3)nc2n(C2CCCC2)c1=O [Palbociclib] (partner 0.5 µM)
Outline: as §1

Zebularine + AZD7762 = compound: O=c1ncccn1[C@@H]1O[C@H](CO)[C@@H](O)[C@H]1O [Zebularine] + NC(=O)Nc1cc(-c2cccc(F)c2)sc1C(=O)N[C@H]1CCCNC1 [AZD7762] (partner 0.2 µM)
Outline: as §1

Zebularine + Bortezomib = compound: O=c1ncccn1[C@@H]1O[C@H](CO)[C@@H](O)[C@H]1O [Zebularine] + CC(C)C[C@H](NC(=O)[C@H](Cc1ccccc1)NC(=O)c1cnccn1)B(O)O [Bortezomib] (partner 0.002 µM)
Outline: as §1

Row | Cell Line | relative viability (BI-D1870 + Alpelisib; first compound 0.04 µM) | relative viability (BI-D1870 + Alpelisib; first compound 0.1265 µM) | relative viability (BI-D1870 + Alpelisib; first compound 0.4 µM) | relative viability (BI-D1870 + Alpelisib; first compound 1.265 µM) | relative viability (BI-D1870 + Alpelisib; first compound 4 µM) | relative viability (Zebularine + Palbociclib; first compound 1 µM) | relative viability (Zebularine + Palbociclib; first compound 3.162 µM) | relative viability (Zebularine + Palbociclib; first compound 10 µM) | relative viability (Zebularine + Palbociclib; first compound 31.62 µM) | relative viability (Zebularine + Palbociclib; first compound 100 µM) | relative viability (Zebularine + AZD7762; first compound 1 µM) | relative viability (Zebularine + AZD7762; first compound 3.162 µM) | relative viability (Zebularine + AZD7762; first compound 10 µM) | relative viability (Zebularine + AZD7762; first compound 31.62 µM) | relative viability (Zebularine + AZD7762; first compound 100 µM) | relative viability (Zebularine + Bortezomib; first compound 1 µM) | relative viability (Zebularine + Bortezomib; first compound 3.162 µM) | relative viability (Zebularine + Bortezomib; first compound 10 µM) | relative viability (Zebularine + Bortezomib; first compound 31.62 µM) | relative viability (Zebularine + Bortezomib; first compound 100 µM)
1 | NCI-H1944 | 0.907 | 0.803 | 0.817 | 0.927 | 0.861 | 0.309 | 0.353 | 0.339 | 0.36 | 0.329 | 0.598 | 0.537 | 0.451 | 0.525 | 0.258 |  |  |  |  | 
2 | NCI-H1793 | 0.647 | 0.607 | 0.537 | 0.69 | 0.719 | 0.364 | 0.309 | 0.214 | 0.186 | 0.221 | 0.499 | 0.676 | 0.326 | 0.407 | 0.359 |  |  |  |  | 
3 | NCI-H520 | 0.903 | 0.76 | 0.85 | 0.953 | 0.764 | 0.213 | 0.217 | 0.202 | 0.201 | 0.175 |  |  |  |  |  | 0.831 | 0.449 | 0.337 | 0.231 | 0.224
4 | A549 | 0.907 | 0.639 | 0.891 | 0.609 | 0.477 |  |  |  |  |  |  |  |  |  |  |  |  |  |  | 
5 | NCI-H358 | 0.964 | 0.745 | 0.852 | 0.663 | 0.415 | 0.213 | 0.128 | 0.134 | 0.131 | 0.132 | 0.591 | 0.386 | 0.484 | 0.451 | 0.333 |  |  |  |  | 
6 | NCI-H1563 | 0.946 | 0.863 | 0.982 | 0.897 | 0.945 |  |  |  |  |  |  |  |  |  |  | 0.826 | 1.02 | 0.874 | 1.04 | 0.928
7 | NCI-H1395 | 1.56 | 1.04 | 1.11 | 1.05 | 1.08 | 0.664 | 0.659 | 0.621 | 0.512 | 0.518 | 0.402 | 0.372 | 0.397 | 0.37 | 0.435 |  |  |  |  | 
8 | NCI-H2009 | 1.28 | 1.13 | 1.21 | 0.995 | 0.885 | 0.249 | 0.229 | 0.234 | 0.198 | 0.197 |  |  |  |  |  | 1.04 | 0.928 | 0.876 | 0.609 | 0.339
9 | NCI-H522 |  |  |  |  |  | 0.923 | 0.942 | 0.926 | 0.827 | 0.765 | 0.76 | 0.821 | 0.767 | 0.858 | 0.841 |  |  |  |  | 
10 | IA-LM | 0.687 | 0.673 | 0.759 | 0.765 | 0.446 |  |  |  |  |  |  |  |  |  |  | 0.63 | 0.892 | 0.617 | 1.03 | 0.672
11 | SK-LU-1 | 1.04 | 0.879 | 0.807 | 0.653 | 0.237 | 0.417 | 0.408 | 0.347 | 0.38 | 0.356 |  |  |  |  |  | 1.3 | 0.913 | 0.576 | 0.737 | 0.502
12 | NCI-H1703 | 0.263 | 0.341 | 0.301 | 0.379 | 0.305 |  |  |  |  |  | 0.144 | 0.173 | 0.118 | 0.142 | 0.103 | 0.273 | 0.302 | 0.296 | 0.512 | 0.411
13 | SW 900 |  |  |  |  |  | 0.503 | 0.484 |  | 0.669 | 0.527 | 0.65 | 0.57 |  | 0.818 | 0.832 |  |  |  |  | 
